The test system of the assay is TLR2 induced IL-6 in peripheral blood mononuclear cells (PBMCs). The assay is described as follows: PBMC TLR2 Induced IL-6 Assay. The assay is classed as cell-based. The note with it: lipoteichoic acid 10 μg/ml 5 h, IL-6 by ELISA. On the procedure: PBMC TLR2 Induced IL-6 Assay
Peripheral blood mononuclear cells (PBMCs) were isolated from human blood containing the anti-coagulant EDTA (2.5 mM) by centrifugation over a FICOLL® gradient. PBMCs (250000 cells/well) were cultured in assay media (RPMI with 10% heat inactivated FCS) with compounds for 30 minutes at 37° C. in a 5% CO2 incubator. Following pretreatment with compounds, cells were stimulated for 5 hours with 10 μg/ml lipoteichoic acid (Invivogen, San Diego, Calif.), a TLR2 agonist. At the end of the culture, plates were centrifuged at 1800 rpm for 10 minutes to pellet the cells. Supernatants were harvested and analyzed for IL-6 levels by ELISA (BD Biosciences, San Jose, Calif.).
On the technique in general: An ELISA detects its analyte on a solid surface through an enzyme-linked reagent.

Where [1] appears, read: Homo sapiens, PBMC, 5 h, value marked * = EC50, read-out: Cell EC50 (*).

pEC50, pIC50: −log10 of the molar value. Where two headings read alike, the source gives them in different places.

In general, pIC50 refers to the negative decadic logarithm of the IC50, by convention in mol/L. As for `CC(C)(O)[C@H](F)CNC(=O)c1cnc(Nc2ncc(C#N)cc2F)cc1NC1CCCOC1` (some centres unmarked) [Example 98], the pIC50 (Homo sapiens, PBMC, 5 h, value without asterisk, read-out: Cell IC50) was 6.16. For orientation: pEC50 means −log10 of the EC50, conventionally taken in molar units. Turning to `CC(C)Nc1cc(Nc2ncc(C#N)cc2Cl)ncc1C(=O)NC1CCC(C(C)(C)O)CC1` (centres unmarked) [Example 102], under setting [1], the pEC50 is 7.15. Turning to `CC(C)(O)[C@H](F)CNC(=O)c1cnc(Nc2ncc(C#N)c(N)n2)cc1NC1CC1` [Example 154], the negative logarithm of the EC50 (pEC50) (human PBMCs, value marked * = EC50, read-out: Cell EC50 (*)) was 6.28. With `Cc1cnc(Nc2cc(NC(C)C)c(C(=O)NC[C@@H](F)C(C)(C)O)cn2)c(F)c1` [Example 129], the pEC50 under setting [1] is 6.40. On to `CC(C)(O)[C@H](F)CNC(=O)c1cnc(Nc2ncc(C#N)cc2F)cc1NC1COC1` [Example 164], for which the pEC50 under setting [1] was 6.76.
